Read-outs that look alike come from different tables or passages of the source.
Legend:
[1] = tested on: L. infantum promastigotes; assay: Promastigote assay (resazurin viability); format: cell-based, Leishmania infantum; conditions: for IC50: Leishmania infantum, 48 h, read-out: L. infantum IC50 Promastigotes; for Selectivity index Promastigotes: SI = CC50/IC50
Procedure: (§1) L. infantum promastigotes were grown at 26 °C in Schneider medium (Sigma), supplemented with 20% heat-inactivated fetal bovine serum (Sigma) and 1% penicillin-streptomycin (Sigma). To ensure maintenance of virulence, the parasites were serially passed through BALB/c mice. THP-1 cells were cultured in RPMI-1640 medium (Sigma-Aldrich), supplemented with 10% heat-inactivated SFB (Sigma) and 1% penicillin-streptomycin (Life Technologies), maintained at a density of 10^6 cells/mL, and incubated at 37 °C in a 5% CO2 atmosphere. For differentiation, THP-1 cells were seeded in 96-well culture plates at a concentration of 1 × 10^4 cells/well and treated with 100 ng/mL of […] (PMA, Sigma-Aldrich) and incubated for 48 h at 37 °C and 5% CO2. Cell viability was previously assessed using the Trypan Blue exclusion method. […] Differentiated THP-1 cells were washed with nonsupplemented RPMI-1640 and given fresh medium without PMA. The cells were rested for 24 h before further treatment.
To evaluate the effect of prioritized compounds on parasite viability, 4 × 10^6 promastigotes/mL were incubated in the presence of a series of 11 points (0.1% DMSO) for 48 h at 28 °C to a final volume of 200 μL in a 96-well microplate, with each condition tested in technical replicates (≥2 wells per condition). Next, 20 μL of resazurin solution (0.39 mM) was added to each well and incubated for 4 h, and then fluorescence was recorded (570 nmex/595 nmem) on a microplate reader SpectraMax M5 (Molecular Devices, Sunnyvale, CA). The IC50 values were determined in three independent experiments by fitting concentration–response curves using nonlinear regression with a four-parameter logistic (4PL) model in GraphPad Prism v10.

[2] = tested on: intracellular L. infantum amastigotes; assay: Intracellular assay in infected THP-1-derived macrophages; format: cell-based, Leishmania infantum; conditions: for IC50: 48 h; for Selectivity index Intracellular: SI = CC50/IC50
Procedure: as §1
THP-1 cells differentiated in 96-well culture plates were infected with promastigotes in the stationary phase at a ratio of 30 parasites: 1 cell for 4 h at 37 °C in a final volume of 100 μL. The noninternalized parasites were then removed by washing with RPMI-1640 medium. The compounds were diluted at concentrations of 200–0.7 μM in 100 μL of culture medium per well for serial dilution. Subsequently, 100 μL of the diluted compounds was added to the infected THP-1 cells and incubated for 48 h, with each condition tested in technical replicates (≥2 wells per condition). The number of intracellular parasites per 100 macrophages was counted using light microscopy. The infection rate was determined in relation to the mean of the control wells. The IC50 values were determined independently in three separate experiments by fitting concentration–response curves to a 4PL model in GraphPad Prism v10.

[3] = Cytotoxicity assay (resazurin); format: cell-based; conditions: human, THP-1 cells, pH 7.4
Procedure: as §1
THP-1 cells were cultured in 96-well plates at a density of 1 × 10^4 cells per well in 100 μL of RPMI 1640 medium supplemented with 10% heat-inactivated fetal bovine serum (FBS) and 25 mM HEPES (pH 7.4). Cultures were maintained at 37 °C in a humidified atmosphere containing 5% CO2. After 24 h of incubation, the test compounds were prepared in serial dilutions in complete medium, starting at a concentration of 200 μM. Subsequently, 100 μL of each diluted compound solution was added to the corresponding wells containing the cells, with each concentration tested in duplicate wells. Following a 72 h incubation period, resazurin solution (Sigma) was added to each well at a final concentration of 20 μM, and plates were incubated for an additional 4 h under the same conditions. Fluorescence was measured using a SpectraMax M5 microplate reader (Molecular Devices, Sunnyvale, CA, USA) with an excitation wavelength of 570 nm and an emission wavelength of 595 nm.

[4] = Experimental determination of distribution coefficient (eLogD), chromatographic; format: physicochemical; conditions: Supelco Ascentis Express RP Amide HPLC column; pH 7.4, chromatographic retention method
Procedure: (§2) ADME profiling was conducted using liquid chromatography coupled with tandem mass spectrometry (LC–MS/MS).
The eLogD was carried out using a chromatographic method based on the analyte retention times within a stationary phase. Separation was performed on a Supelco Ascentis Express RP Amide high-performance liquid chromatography (HPLC) column (5 cm × 2.1 mm, 2.7 μm particle size), utilizing a binary mobile phase system composed of 5% methanol in 10 mM ammonium acetate buffer at pH 7.4 (designated as solvent A), and pure methanol (solvent B). […] The injection volume for each sample was 5 μL. Test compounds were diluted to a concentration of 1.0 mg/mL in a 1:1 mixture of mobile phases A and B, containing an internal standard at 200 nM. Final DMSO concentration was kept below 2%. […] A calibration curve was generated by plotting the retention times of these standards against their corresponding eLogD values. The linear regression equation (y = mx + b) obtained from this curve was then used to calculate the eLogD of each test compound.

[5] = Parallel artificial membrane permeability assay (PAMPA); format: in vitro ADME; conditions: donor pH 6.5, acceptor pH 7.4, 5 h, 37 °C; for Papp at 5 h, 10 μM: PAMPA, read-out: PAMPA Pe
Procedure: as §2
Each well is divided into two chambers, donor and acceptor, separated by a triple-layer phospholipid membrane constructed on a porous filter. Solutions of the compounds are prepared by diluting their respective stock solutions (10 mM in DMSO) in phosphate-buffered saline (PBS) at pH 6.5, yielding a final concentration of 10 μM (<1% DMSO, v/v). The solutions are then added to the donor portion of the plate (300 μL/well) in triplicate, while the acceptor portion received only PBS pH 7.4 (200 μL/well). The donor and acceptor portions are subsequently assembled, and the system is incubated for 5 h at 37 °C and 100 rpm. […] After the incubation period, samples are collected from the donor (10 μL) and acceptor (80 μL) wells and added to the analysis plate containing stop solution (300 μL) and PBS buffer pH 6.5 (60 μL). Final compound concentrations in the donor, acceptor, and Tzero wells are quantified by LC-MS/MS. The chromatogram for analysis was achieved on Supelco Ascentis express C18 column (3 cm × 2.1 mm, 5 μM). The mobile phases consisted of water +0.1% formic acid (A) and acetonitrile +0.1% formic acid (B). […] The results were used to calculate an effective permeability (Pe) value. All PAMPA assay was performed in triplicates.

[6] = Mouse liver microsomal stability assay; format: in vitro ADME; conditions: CD1, mouse, mouse liver microsomes, pH 7.4, 0.25 mg/mL protein; for microsomal CLint at 0.5 μM: read-out: MLM CLint; for half-life at 0.5 μM: read-out: MLM T 1/2
Procedure: as §2
Compounds were diluted to a final concentration of 0.5 μM and incubated with microsomal protein at 0.25 mg/mL in phosphate-buffered saline (PBS) at pH 7.4. The DMSO content in the incubation mixture was maintained below 1%. The metabolic reaction was initiated by introducing NADPH as a cofactor at a concentration of […]. Aliquots were taken at defined time intervals: 0 (immediately after NADPH addition), 5, 10, 20, 30, and 60 min. Reactions were halted by the addition of a quenching solvent consisting of a 1:1 mixture of acetonitrile and methanol containing an internal standard at 50 nM. Following quenching, samples were centrifuged at 3500 rpm for 30 min to pellet the precipitated microsomal proteins. The resulting supernatants were analyzed via LC–MS/MS. Quantification was performed based on the peak area ratio (PAR) of the analyte to internal standard, with the signal at time zero defined as 100%. The percentage of parent compound remaining at each time point was calculated accordingly. Using the plot of % remaining versus incubation time, the degradation rate constant (k) was determined via nonlinear regression. […] Chromatographic analysis was carried out using a Supelco Ascentis Express C18 column (3 cm × 2.1 mm, 5 μm particle size). The mobile phases were composed of water with 0.1% formic acid (A) and acetonitrile with 0.1% formic acid (B). […] All metabolic stability assays were conducted in triplicate.

[7] = Leishmania infantum, Macrophage, THP-1-derived macrophages infected with L. infantum, read-out: L. infantum IC50 Intracellular
[8] = Leishmania infantum, Macrophage, read-out: L. infantum IC50 Intracellular, THP-1-derived macrophages infected with L. infantum, 48 h
[9] = THP-1-derived macrophages infected with L. infantum, read-out: L. infantum IC50 Intracellular

Compound | IC50 ([1]; resazurin) [µM] | Selectivity index Promastigotes [1] | Selectivity index Intracellular [2] | CC50 at 72 h [3] [µM] | other results
Cc1ccccc1CN1CCC(CN(Cc2cccnc2)Cc2nc(C(C)C)cs2)CC1 [LC-64] | 3.95 ± 0.42 | 7.03 | 4.13 | 27.8 ± 3.59 | IC50 [2, 7]: 6.72 ± 5.79 µM
O=C1OCc2ccc(NC(=O)N3CCCCC3c3cccnc3)cc21 (centres unmarked) [LC-71] | 11.7 ± 2.86 | >17.1 | >20.5 | > 200 | IC50 [2, 8]: < 10 µM; IC50 [2, 9]: 9.76 ± 10.2 µM
OC(COc1ccc(Br)cc1)Cn1ccnc1 (centres unmarked) [LC-75] | 10.5 ± 1.26 | >9.52 | >14.8 | > 100 | IC50 [2, 8]: < 10 µM; IC50 [2, 9]: 6.73 ± 3.27 µM
CCCCC(NC1CCN(c2ccccc2F)CC1)c1cccnc1 (centres unmarked) [LC-61] | 0.037 ± 0.002 | – | – | 157 ± 20.7 | chromatographic logD [4]: 4.07; Papp at 5 h, 10 μM [5]: 4.86 ×10⁻⁶ cm/s; PAMPA Pe [5]: 4.86 10^–6 cm/s
O=C(Cc1ccccc1)NC(c1ccc(Cl)cc1)c1cccnc1 (centres unmarked) [LC-66] | 3.18 ± 0.72 | >31.4 | >2.46 | > 100 | IC50 [2, 7]: 40.5 ± 58.7 µM
Fc1ccc(N2CCC(NCC(c3cccnc3)N3CCCCC3)CC2)cc1F (centres unmarked) [LC-62] | 9.62 ± 0.98 | >10.4 | >24.7 | > 100 | –
Fc1cccc(CN(Cc2cccnc2)CC2CCCN(C3CCCCC3)C2)c1 (centres unmarked) [LC-63] | – | 7.26 | – | 32.9 ± 5.22 | IC50 [1]: 4.53 ± 0.8 µM; IC50 [2, 8]: 11.5 ± 24 µM
Cc1ccc(C)c(-c2nc(NC(=O)c3ccncc3)sc2C)c1 [LC-68] | > 20 | – | – | – | –
CC(C)n1cc(C(=O)NC(c2ccc(Cl)cc2)c2cccnc2)cn1 (centres unmarked) [LC-73] | > 20 | – | – | – | –
O=C(C(c1cccnc1)N1CCOCC1)N1CCCN(Cc2ccc(F)cc2)CC1 (centres unmarked) [LC-65] | – | – | – | > 245 | IC50 [1]: 3.59 ± 0.53 µM; IC50 [2, 8]: > 55.5 µM
O=C(NCCc1cnc[nH]1)c1cc(-c2ccccc2)nc2ccccc12 [LC-67] | > 20 | – | – | – | –
Cc1ccc(C)c(-c2nc(NC(=O)C3CC3)sc2C)c1 [LC-69] | > 20 | – | – | – | –
Cn1nnc2cc(NC(=O)N3CCCCC3c3cccnc3)ccc21 (centres unmarked) [LC-72] | > 20 | – | – | – | –
CC(C)N1CCC(C(=O)NC(c2ccc(Cl)cc2)c2cccnc2)CC1 (centres unmarked) [LC-70] | > 20 | – | – | – | –
Cc1ccccc1CN1CCC(CN(Cc2cccnc2)Cc2cc(CC(C)C)[nH]n2)CC1 [LC-58] | 7.85 ± 0.64 | 4.45 | 4.48 | 35 ± 5.2 | IC50 [2, 7]: 7.81 ± 4.13 µM
Cc1cc(F)ccc1N1CCC(NC(Cn2ccnc2)c2ccccc2)CC1 (centres unmarked) [LC-60] | 0.43 ± 0.05 | – | – | 40.8 ± 28.2 | microsomal CLint at 0.5 μM [6]: 120 µL/min/mg; half-life at 0.5 μM [6]: 0.386 h; chromatographic logD [4]: 4.45; Papp at 5 h, 10 μM [5]: 6.36 ×10⁻⁶ cm/s
CCc1nc(C)c(C(=O)NCC(c2cccnc2)N2CCCCC2)s1 (centres unmarked) [LC-59] | > 20 | – | – | – | –
O=C(Nc1ccc(Cl)cn1)N1CCCCC1c1cccnc1 (centres unmarked) [LC-74] | 0.49 ± 0.07 | – | – | > 200 | microsomal CLint at 0.5 μM [6]: 27.2 µL/min/mg; half-life at 0.5 μM [6]: 1.7 h; chromatographic logD [4]: 2.39; Papp at 5 h, 10 μM [5]: 10.8 ×10⁻⁶ cm/s

Source: paper PMC13080969 (Journal of Chemical Information and Modeling, 2026)
